Results published in patent US20260001834A1, “COMPOUND OR SALT THEREOF, LIPID COMPOSITION, PHARMACEUTICAL COMPOSITION, AND DELIVERY CARRIER” (FUJIFILM Corporation, priority 2023, published 2026).

Assays:
[1] = Encapsulation rate of mRNA in lipid nanoparticles; type: physicochemical; settings: EPO mRNA-encapsulating lipid nanoparticles, compound:DSPC:cholesterol:DMG-PEG2000=50:10:38.5:1.5
Procedure: (§1) The compounds shown in Table 9, 1,2-distearoyl-sn-glycero-3-phosphocholine (product name: COATSOME® MC-8080; NOF corporation) (hereinafter, DSPC), cholesterol (product name: Cholesterol HP; Nippon Seika Co., Ltd.), and 1,2-dimyristoyl-rac-glycero-3-(methylpolyoxyethylene 2000) (hereinafter, DMG-PEG2000) (product name: SUNBRIGHT® GM-020; NOF corporation) were dissolved in ethanol at a molar ratio (mol %) of compounds shown in Table 9:1,2-distearoyl-sn-glycero-3-phosphocholine:cholesterol:DMG-PEG2000=50:10:38.5:1.5 such that the total lipid concentration was 12.5 mmol/L, thereby obtaining an oil phase.
(§2) EPO mRNA (product name: CleanCap EPO mRNA (5moU); TriLink) was diluted with 50 mmol/L citrate buffer having a pH 4.0 such that the weight ratio of total lipid concentration to mRNA concentration is about 20:1, thereby obtaining a water phase. Then, the water phase and the oil phase were mixed together using NanoAssemblr (Precision NanoSystems) such that the volume ratio of water phase:oil phase was 3:1, and the mixed solution was 2-fold diluted with phosphate buffered physiological saline (PBS) or water, thereby obtaining a dispersion liquid of mRNA lipid nanoparticles. The dispersion liquid was dialyzed with 20 mM Tris buffer solution containing 8% sucrose using a dialysis cassette (Slide-A-Lyzer G2, MWCO: 10 kD, Thermo Fisher Scientific) to remove ethanol, thereby obtaining EPO mRNA-encapsulating lipid nanoparticles.
<Evaluation of Encapsulation Rate of mRNA> (Quantification of Total mRNA Concentration)
EPO mRNA was diluted with MilliQ water to prepare a diluted sample in 2-fold dilution series from 100 μg/mL to 3.1 μg/mL, and a standard solution for calibration was prepared. 50 μL of the standard solution for calibration or the mRNA lipid nanoparticles was mixed with 450 μL of methanol to prepare a measurement solution.
The absorbance of each measurement solution at 260 nm and 330 nm was measured using a UV plate reader (Multiskan Go, Thermo Fisher Scientific), the absorbance at 330 nm was subtracted from the absorbance at 260 nm, and the result was used as the absorbance of each measurement solution. The total water phase nucleic acid concentration was calculated from the calibration curve using the absorbance of each sample measurement solution.
(Quantification of mRNA Concentration in Outer Water Phase)
The concentration of the outer water phase nucleic acid was quantified by a standard addition method using a QuanT-iT RiboGreen RNA Assay Kit (Thermo Fisher Scientific). First, a 20×TE buffer included in the above kit was diluted with water, thereby obtaining a 1×TE buffer. TE represents Tris/EDTA (ethylenediaminetetraacetic acid). EPO mRNA was diluted with a TE buffer such that the final concentration was 0 to 400 ng/mL to prepare a nucleic acid diluted series. 10 μL of mRNA lipid nanoparticles diluted 5-fold with TE buffer and 90 μL of a nucleic acid dilution series were mixed in a 96-well plate, 100 μL of a Ribogreen reagent diluted 200-fold with TE buffer was added to each well, and then fluorescence (excitation wavelength: 485 nm, fluorescence wavelength: 535 nm) was measured using a fluorescence plate reader (Infinite 200 Pro M nano+, TECAN). From the obtained results, the outer water phase nucleic acid concentration of each measurement solution was calculated according to the standard addition method.
(Calculation of Encapsulation Rate)
By using the quantification results of the total mRNA concentration and the mRNA concentration in the outer water phase that were obtained through the above steps, the mRNA encapsulation rate of the mRNA lipid nanoparticles was calculated according to the following Equation.

[2] = Particle diameter and polydispersity index (PdI) of mRNA-encapsulating lipid nanoparticles; type: physicochemical; settings: EPO mRNA-encapsulating lipid nanoparticles, compound:DSPC:cholesterol:DMG-PEG2000=50:10:38.5:1.5; diluted with PBS
Procedure: as §1, §2
The particle diameter and the polydispersity index (PdI) of the mRNA-encapsulating lipid nanoparticles were obtained by measuring a dispersion liquid of lipid nanoparticles diluted with phosphate buffered physiological saline (PBS) using a particle size analyzer NanoSAQLA (Otsuka Electronics Co., Ltd.).

ICR mice = experiment: EPO expression level in mice after intravenous EPO mRNA lipid nanoparticles (human EPO ELISA of plasma); type: in vivo; settings: mRNA dosage 0.1 mg/kg, plasma 6 hours after administration, Comparative Example set to 1
Procedure: as §1, §2
The dispersion liquid of mRNA lipid nanoparticles prepared in above <Preparation of EPO mRNA-encapsulating lipid nanoparticles> was intravenously administered to ICR mice at a mRNA dosage of 0.1 mg/kg. 6 hours after the administration, blood was collected from the caudal vena cava, thereby obtaining plasma. The human EPO […] was quantified by using the obtained blood plasma and Erythropoietin (EPO) Human Elisa Kit (Abcam.plc). The quantitative value is described as a relative amount of EPO protein in a case where Comparative Example is set to 1.

Row | Molecule | Nucleic acid encapsulation rate [1] | Particle diameter (nm) [2] | PdI [2] | Relative amount of EPO protein (with respect to Comparative Example 1) (ICR mice)
1 | CCCCCCCOC(=O)CCCC(CCCCCC)OC(=O)OCCN(CCCN(CC)CC)CCOC(=O)C(CCCCCC)CCCCCC (stereo not drawn) [Compound 20, heptyl 3-ethyl-13-hexyl-7-(2-((2-hexyloctanoyl)oxy)ethyl)-11-oxo-10,12-dioxa-3,7-diazaheptadecan-17-oate] | 87% | 137 nm | 0.10 | 1.68
2 | CCCCCCOC(=O)CCCCCCCCC(CCCCCC)OC(=O)OCCN(CCOC(=O)C(CCCCCC)CCCCCC)CCN(CC)CC (stereo not drawn) [Compound 2, hexyl 3-ethyl-12-hexyl-6-(2-((2-hexyloctanoyl)oxy)ethyl)-10-oxo-9,11-dioxa-3,6-diazahenicosan-21-oate] | 90% | 103 nm | 0.03 | 1.61
3 | heptyl 3-ethyl-12-hexyl-6-(2-((2-hexyloctanoyl)oxy)ethyl)-10-oxo-9,11-dioxa-3,6-diazahexadecan-1 6-oate [Compound 5] | 79% | 118 nm | 0.07 | 2.28
4 | CCCCCCCCOC(=O)CCCC(CCCCCC)OC(=O)OCCN(CCOC(=O)CC(CCCCCCC)CCCCCCC)CCN(CC)CC (stereo not drawn) [Compound 8, octyl 3-ethyl-6-(2-((3-heptyldecanoyl)oxy)ethyl)-12-hexyl-10-oxo-9,11-dioxa-3,6-diazahexadecan-16-oate] | 78% | 89 nm | 0.12 | 3.79
5 | CCCCCCCCCC(CCCCCCCCC)C(=O)OCCN(CCOC(=O)OC(CCCCCC)CCCC(=O)OCCCCCCC)CCN(CC)CC (stereo not drawn) [Compound 17, heptyl 3-ethyl-12-hexyl-6-(2-((2-nonylundecanoyl)oxy)ethyl)-10-oxo-9,11-dioxa-3,6-diazahexadecan-16-oate] | 95% | 79 nm | 0.15 | 1.91
6 | CCCCCCCOC(=O)CCCCC(CCCCCC)OC(=O)OCCN(CCCN(CC)CC)CCOC(=O)C(CCCCCC)CCCCCC (stereo not drawn) [Compound 21, heptyl 3-ethyl-13-hexyl-7-(2-((2-hexyloctanoyl)oxy)ethyl)-11-oxo-10,12-dioxa-3,7-diazaoctadecan-1 8-oate] | 89% | 129 nm | 0.12 | 1.65
7 | CCCCCCCCOC(=O)CCCC(CCCCCC)OC(=O)OCCN(CCOC(=O)C(CCCCCCC)CCCCCCC)CCN(CC)CC (stereo not drawn) [Compound 7, octyl 3-ethyl-6-(2-((2-heptylnonanoyl)oxy)ethyl)-12-hexyl-10-oxo-9,11-dioxa-3,6-diazahexadecan-16-oate] | 79% | 82 nm | 0.12 | 3.82
8 | CCCCCCCOC(=O)CCCC(CCCCCC)OC(=O)OCCN(CCOC(=O)CC(CCCCCCC)CCCCCCC)CCN(CC)CC (stereo not drawn) [Compound 6, heptyl 3-ethyl-6-(2-((3-heptyldecanoyl)oxy)ethyl)-12-hexyl-10-oxo-9,11-dioxa-3,6-diazahexadecan-16-oate] | 77% | 98 nm | 0.11 | 4.91
9 | CCCCCCCCCCC(CCCCCCCCCC)C(=O)OCCN(CCOC(=O)OC(CCCCCC)CCCC(=O)OCCCCCCC)CCN(CC)CC (stereo not drawn) [Compound 18, heptyl 6-(2-((2-decyldodecanoyl)oxy)ethyl)-3-ethyl-12-hexyl-10-oxo-9,11-dioxa-3,6-diazahexadecan-16-oate] | 95% | 79 nm | 0.13 | 1.30
10 | CCCCCCCOC(=O)CCCCC(CCCCCC)OC(=O)OCCN(CCCN(CC)CC)CCOC(=O)C(CCCCCCC)CCCCCCC (stereo not drawn) [Compound 22, heptyl 3-ethyl-7-(2-((2-heptylnonanoyl)oxy)ethyl)-13-hexyl-11-oxo-10,12-dioxa-3,7-diazaoctadecan-18-oate] | 94% | 95 nm | 0.10 | 6.09
11 | CCCCCCCCC(CCCCCCCC)C(=O)OCCN(CCOC(=O)OC(CCCCCC)CCCC(=O)OCCCCCCC)CCN(CC)CC (stereo not drawn) [Compound 4, heptyl 3-ethyl-12-hexyl-6-(2-((2-octyldecanoyl)oxy)ethyl)-10-oxo-9,11-dioxa-3,6-diazahexadecan-1 6-oate] | 90% | 85 nm | 0.12 | 3.09
12 | CCCCCCCC(CCCCCCC)CC(=O)OCCN(CCOC(=O)OC(CCCCCC)CCCC(=O)OCC(CCCCCC)CCCCCC)CCN(CC)CC (stereo not drawn) [Compound 10, 2-hexyloctyl 3-ethyl-6-(2-((3-heptyldecanoyl)oxy)ethyl)-12-hexyl-10-oxo-9,11-dioxa-3,6-diazahexadecan-16-oate] | 86% | 75 nm | 0.10 | 1.72
13 | CCCCCCCC(CCCCCCC)CC(=O)OCCN(CCOC(=O)OC(CCCCCC)CCCC(=O)OCC(CCCCC)CCCCC)CCN(CC)CC (stereo not drawn) [Compound 9, 2-pentylheptyl 3-ethyl-6-(2-((3-heptyldecanoyl)oxy)ethyl)-12-hexyl-10-oxo-9,11-dioxa-3,6-diazahexadecan-16-oate] | 85% | 77 nm | 0.13 | 2.30
14 | CCCCCCCCC(CCCCCC)C(=O)OCCN(CCOC(=O)OC(CCCCCC)CCCC(=O)OCCCCCCC)CCN(CC)CC (stereo not drawn) [Compound 19, heptyl 3-ethyl-12-hexyl-6-(2-((2-hexyldecanoyl)oxy)ethyl)-10-oxo-9,11-dioxa-3,6-diazahexadecan-1 6-oate] | 94% | 91 nm | 0.09 | 4.31
15 | CCCCCCCCOC(=O)CCCCCCCCC(CCCCCC)OC(=O)OCCN(CCOC(=O)C(CCCC)CCCCCC)CCN(CC)CC (stereo not drawn) [Compound 1, octyl 6-(2-((2-butyloctanoyl)oxy)ethyl)-3-ethyl-12-hexyl-10-oxo-9,11-dioxa-3,6-diazahenicosan-21-oate] | 89% | 112 nm | 0.03 | –
16 | CCCCCCCOC(=O)CCCCC(CCCCCC)OC(=O)OCCN(CCCN(CC)CC)CCOC(=O)CC(CCCCCCC)CCCCCCC (stereo not drawn) [Compound 25, heptyl 3-ethyl-7-(2-((3-heptyldecanoyl)oxy)ethyl)-13-hexyl-11-oxo-10,12-dioxa-3,7-diazaoctadecan-18-oate] | 94% | 102 nm | 0.16 | 4.77
